Test results from patent publication US12077503B2, “Substituted cyclic amides and their use as herbicides” (FMC CORPORATION, priority 2015, dated 2024).

Legend:
Assay type in all cases: in vivo
[1] = test system: barnyardgrass (Echinochloa crus-galli); test: Test G Pre-Emergence Protocol; details: Echinochloa crus-galli, pre-emergence, 312 h, evaluated after 13 days; for pest or weed control at 15.625 g/ha: 15.625 g ai/ha, read-out: Barnyard grass damage rating (100=total damage to plant; 0=no damage to plant); for pest or weed control at 62.5 g/ha: 62.5 g ai/ha, 100=total damage to plant, 0=no damage to plant, read-out: plant damage rating, Barnyardgrass; for pest or weed control at 250 g/ha: 250 g ai/ha, read-out: Barnyardgrass damage rating (100=total damage to plant; 0=no damage to plant)
How it was run: (§1)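 Pots of seeds in standard soil were grown for one day in a glasshouse (24/16 °C day/night, 14 h light, 65% humidity), then sprayed with compound in acetone/water 50:50 with 0.5% Tween 20 at 15.625, 62.5 or 250 g/ha. Damage was scored after 13 days on a 0 (none) to 100 (total) scale.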

[2] = test system: corn (Zea mays); test: Test G Pre-Emergence Protocol; details: Zea mays, pre-emergence, 312 h, evaluated after 13 days; for plant injury at 15.625 g/ha: 15.625 g ai/ha; for plant injury at 15.625 g/ha / plant injury at 250 g/ha: read-out: Corn damage rating (100=total damage to plant; 0=no damage to plant); for plant injury at 62.5 g/ha: 62.5 g ai/ha, 100=total damage to plant, 0=no damage to plant, read-out: plant damage rating, Corn; for plant injury at 250 g/ha: 250 g ai/ha
How it was run: as §1

[3] = test system: giant foxtail (Setaria faberi); test: Test G Pre-Emergence Protocol; details: Setaria faberi, pre-emergence, 312 h, evaluated after 13 days; for pest or weed control at 15.625 g/ha: 15.625 g ai/ha; for pest or weed control at 15.625 g/ha / pest or weed control at 250 g/ha: read-out: Foxtail, Giant damage rating (100=total damage to plant; 0=no damage to plant); for pest or weed control at 62.5 g/ha: 62.5 g ai/ha, 100=total damage to plant, 0=no damage to plant, read-out: plant damage rating, Foxtail, Giant; for pest or weed control at 250 g/ha: 250 g ai/ha
How it was run: as §1

[4] = test system: ivy-leaved morning glory (Ipomoea hederacea); test: Test G Pre-Emergence Protocol; details: Ipomoea, pre-emergence, 312 h, evaluated after 13 days; for pest or weed control at 15.625 g/ha: 15.625 g ai/ha, read-out: Morning-glory, Ivy-leaved damage rating (100=total damage to plant; 0=no damage to plant); for pest or weed control at 62.5 g/ha: 62.5 g ai/ha, 100=total damage to plant, 0=no damage to plant, read-out: plant damage rating, Morningglory, Ivy-leaved; for pest or weed control at 250 g/ha: 250 g ai/ha, read-out: Morningglory, Ivy-leaved damage rating (100=total damage to plant; 0=no damage to plant)
How it was run: as §1

[5] = test system: redroot pigweed (Amaranthus retroflexus); test: Test G Pre-Emergence Protocol; details: Amaranthus retroflexus, pre-emergence, 312 h, evaluated after 13 days; for pest or weed control at 15.625 g/ha: 15.625 g ai/ha; for pest or weed control at 15.625 g/ha / pest or weed control at 250 g/ha: read-out: Pigweed, Redroot damage rating (100=total damage to plant; 0=no damage to plant); for pest or weed control at 62.5 g/ha: 62.5 g ai/ha, 100=total damage to plant, 0=no damage to plant, read-out: plant damage rating, Pigweed, Redroot; for pest or weed control at 250 g/ha: 250 g ai/ha
How it was run: as §1

[6] = test system: velvetleaf (Abutilon theophrasti); test: Test G Pre-Emergence Protocol; details: Abutilon theophrasti, pre-emergence, 312 h, evaluated after 13 days; for pest or weed control at 15.625 g/ha: 15.625 g ai/ha; for pest or weed control at 15.625 g/ha / pest or weed control at 250 g/ha: read-out: Velvetleaf damage rating (100=total damage to plant; 0=no damage to plant); for pest or weed control at 62.5 g/ha: 62.5 g ai/ha, 100=total damage to plant, 0=no damage to plant, read-out: plant damage rating, Velvetleaf; for pest or weed control at 250 g/ha: 250 g ai/ha
How it was run: as §1

[7] = test system: barnyardgrass (Echinochloa crus-galli); test: Test G Post-Emergence Protocol; details: Echinochloa crus-galli, post-emergence, 312 h; for pest or weed control at 15.625 g/ha: 15.625 g ai/ha, evaluated after 13 days (100=total damage to plant; 0=no damage to plant), read-out: Barnyardgrass damage rating; for pest or weed control at 62.5 g/ha: 62.5 g ai/ha, read-out: Barnyardgrass damage rating (100=total damage to plant; 0=no damage to plant); for pest or weed control at 62.5 g/ha / pest or weed control at 250 g/ha: evaluated after 13 days; for pest or weed control at 250 g/ha: 250 g ai/ha, read-out: damage to plant, Barnyardgrass (100=total damage to plant; 0=no damage to plant)
How it was run: (§2)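 Post-emergence herbicidal damage, scored visually 0–100 at 13 days. Application at 15.625, 62.5 or 250 g/ha onto 8-day-old plants grown under glasshouse control.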

[8] = test system: corn (Zea mays); test: Test G Post-Emergence Protocol; details: Zea mays, post-emergence, 312 h; for plant injury at 15.625 g/ha: 15.625 g ai/ha, evaluated after 13 days (100=total damage to plant; 0=no damage to plant), read-out: Corn damage rating; for plant injury at 62.5 g/ha: 62.5 g ai/ha, read-out: Corn damage rating (100=total damage to plant; 0=no damage to plant); for plant injury at 62.5 g/ha / plant injury at 250 g/ha: evaluated after 13 days; for plant injury at 250 g/ha: 250 g ai/ha, read-out: damage to plant, Corn (100=total damage to plant; 0=no damage to plant)
How it was run: as §2

[9] = test system: giant foxtail (Setaria faberi); test: Test G Post-Emergence Protocol; details: Setaria faberi, post-emergence, 312 h; for pest or weed control at 15.625 g/ha: 15.625 g ai/ha, evaluated after 13 days (100=total damage to plant; 0=no damage to plant), read-out: Foxtail, Giant damage rating; for pest or weed control at 62.5 g/ha: 62.5 g ai/ha, read-out: Foxtail, Giant damage rating (100=total damage to plant; 0=no damage to plant); for pest or weed control at 62.5 g/ha / pest or weed control at 250 g/ha: evaluated after 13 days; for pest or weed control at 250 g/ha: 250 g ai/ha, read-out: damage to plant, Foxtail, Giant (100=total damage to plant; 0=no damage to plant)
How it was run: as §2

[10] = test system: ivy-leaved morning glory (Ipomoea hederacea); test: Test G Post-Emergence Protocol; details: Ipomoea, post-emergence, 312 h; for pest or weed control at 15.625 g/ha: 15.625 g ai/ha, evaluated after 13 days (100=total damage to plant; 0=no damage to plant), read-out: Morningglory, Ivy-leaved damage rating; for pest or weed control at 62.5 g/ha: 62.5 g ai/ha, read-out: Morningglory, Ivy-leaved damage rating (100=total damage to plant; 0=no damage to plant); for pest or weed control at 62.5 g/ha / pest or weed control at 250 g/ha: evaluated after 13 days; for pest or weed control at 250 g/ha: 250 g ai/ha, read-out: damage to plant, Morningglory, Ivy-leaved (100=total damage to plant; 0=no damage to plant)
How it was run: as §2

[11] = test system: redroot pigweed (Amaranthus retroflexus); test: Test G Post-Emergence Protocol; details: Amaranthus retroflexus, post-emergence, 312 h; for pest or weed control at 15.625 g/ha: 15.625 g ai/ha, evaluated after 13 days (100=total damage to plant; 0=no damage to plant), read-out: Pigweed, Redroot damage rating; for pest or weed control at 62.5 g/ha: 62.5 g ai/ha, read-out: Pigweed, Redroot damage rating (100=total damage to plant; 0=no damage to plant); for pest or weed control at 62.5 g/ha / pest or weed control at 250 g/ha: evaluated after 13 days; for pest or weed control at 250 g/ha: 250 g ai/ha, read-out: damage to plant, Pigweed, Redroot (100=total damage to plant; 0=no damage to plant)
How it was run: as §2

[12] = test system: velvetleaf (Abutilon theophrasti); test: Test G Post-Emergence Protocol; details: Abutilon theophrasti, post-emergence, 312 h; for pest or weed control at 15.625 g/ha: 15.625 g ai/ha, evaluated after 13 days (100=total damage to plant; 0=no damage to plant), read-out: Velvetleaf damage rating; for pest or weed control at 62.5 g/ha: 62.5 g ai/ha, read-out: Velvetleaf damage rating (100=total damage to plant; 0=no damage to plant); for pest or weed control at 62.5 g/ha / pest or weed control at 250 g/ha: evaluated after 13 days; for pest or weed control at 250 g/ha: 250 g ai/ha, read-out: damage to plant, Velvetleaf (100=total damage to plant; 0=no damage to plant)
How it was run: as §2

Cc1cccnc1NC(=O)C1C(=O)N(C)CC1c1ccc(C(F)(F)F)cc1 (stereo not drawn) [Compound 1437]
0%: pest or weed control at 15.625 g/ha [1] | pest or weed control at 62.5 g/ha [1] | pest or weed control at 250 g/ha [1] | plant injury at 15.625 g/ha [2] | plant injury at 62.5 g/ha [2] | plant injury at 250 g/ha [2] | pest or weed control at 15.625 g/ha [3] | pest or weed control at 62.5 g/ha [3] | pest or weed control at 250 g/ha [3] | pest or weed control at 15.625 g/ha [4] | pest or weed control at 62.5 g/ha [4] | pest or weed control at 250 g/ha [4] | pest or weed control at 15.625 g/ha [5] | pest or weed control at 62.5 g/ha [5] | pest or weed control at 250 g/ha [5] | pest or weed control at 15.625 g/ha [6] | pest or weed control at 62.5 g/ha [6] | pest or weed control at 250 g/ha [6] | pest or weed control at 15.625 g/ha [7] | pest or weed control at 62.5 g/ha [7] | pest or weed control at 250 g/ha [7] | plant injury at 15.625 g/ha [8] | plant injury at 62.5 g/ha [8] | plant injury at 250 g/ha [8] | pest or weed control at 15.625 g/ha [9] | pest or weed control at 62.5 g/ha [9] | pest or weed control at 250 g/ha [9] | pest or weed control at 15.625 g/ha [10] | pest or weed control at 62.5 g/ha [10] | pest or weed control at 250 g/ha [10] | pest or weed control at 15.625 g/ha [11] | pest or weed control at 62.5 g/ha [11] | pest or weed control at 250 g/ha [11] | pest or weed control at 15.625 g/ha [12] | pest or weed control at 62.5 g/ha [12] | pest or weed control at 250 g/ha [12]

CN1C[C@@H](c2ccc(C(F)(F)F)cc2)[C@H](C(=O)Nc2cccc(F)n2)C1=O [Compound 1489]
30%: pest or weed control at 250 g/ha [7]
40%: plant injury at 250 g/ha [8] | pest or weed control at 250 g/ha [9]
0%: pest or weed control at 15.625 g/ha [1] | pest or weed control at 62.5 g/ha [1] | pest or weed control at 250 g/ha [1] | plant injury at 15.625 g/ha [2] | plant injury at 62.5 g/ha [2] | plant injury at 250 g/ha [2] | pest or weed control at 15.625 g/ha [3] | pest or weed control at 62.5 g/ha [3] | pest or weed control at 250 g/ha [3] | pest or weed control at 15.625 g/ha [4] | pest or weed control at 62.5 g/ha [4] | pest or weed control at 250 g/ha [4] | pest or weed control at 15.625 g/ha [5] | pest or weed control at 62.5 g/ha [5] | pest or weed control at 15.625 g/ha [6] | pest or weed control at 62.5 g/ha [6] | pest or weed control at 250 g/ha [6] | pest or weed control at 15.625 g/ha [7] | pest or weed control at 62.5 g/ha [7] | pest or weed control at 15.625 g/ha [9] | pest or weed control at 62.5 g/ha [9] | pest or weed control at 15.625 g/ha [10] | pest or weed control at 62.5 g/ha [10] | pest or weed control at 250 g/ha [10] | pest or weed control at 15.625 g/ha [11] | pest or weed control at 62.5 g/ha [11] | pest or weed control at 15.625 g/ha [12] | pest or weed control at 62.5 g/ha [12] | pest or weed control at 250 g/ha [12]
10%: plant injury at 15.625 g/ha [8] | plant injury at 62.5 g/ha [8] | pest or weed control at 250 g/ha [11]
100%: pest or weed control at 250 g/ha [5]
